Experimental data reported in patent US6420569B1, “Process for producing pyrone compounds” (Sumitomo Chemical Company, Limited, priority 2000, dated 2002).

Tested on: houseflies (Musca domestica)
Experiment: Knock-down test against housefly
Format: in vivo
Details: 0.5% oil solution, 0.7 ml sprayed in 70 cm-cubic glass chamber; ten adult houseflies; 15 minutes after application; two repetitions
Method: (Knock-down Test Against Housefly)
A half part of 4-hydroxy-6-methyl-3-(4-methylpentanoyl)-2-pyrone was dissolved in 10 parts of dichloromethane and mixed with 89.5 parts of Isopar M (isoparaffin produced by Exxon Chemical) for preparing 0.5% oil solution. Part(s) means part(s) by weight.
Ten adult houseflies (Musca domestica) including 5 males and 5 females were released in a 70 cm-cubic glass chamber (volume: […]). By a spray-gun, 0.7 ml of the above oil solution was applied at a pressure of 0.9 kg/cm^2 from a small window on the wall of the chamber. After 15 minutes from application, knocked-down houseflies were observed. As a result of two repetitions, the knocked-down ratio was 95%.

Cc1cc(O)c(C(=O)CCC(C)C)c(=O)o1 [4-Hydroxy-6-methyl-3-(4-methylpentanoyl)-2-pyrone] showed a knocked-down ratio of 95%.
